Assay [1] has as its target T1, human CPT1a (Homo sapiens, UniProt P50416).
T1 sequence (P50416 2-773): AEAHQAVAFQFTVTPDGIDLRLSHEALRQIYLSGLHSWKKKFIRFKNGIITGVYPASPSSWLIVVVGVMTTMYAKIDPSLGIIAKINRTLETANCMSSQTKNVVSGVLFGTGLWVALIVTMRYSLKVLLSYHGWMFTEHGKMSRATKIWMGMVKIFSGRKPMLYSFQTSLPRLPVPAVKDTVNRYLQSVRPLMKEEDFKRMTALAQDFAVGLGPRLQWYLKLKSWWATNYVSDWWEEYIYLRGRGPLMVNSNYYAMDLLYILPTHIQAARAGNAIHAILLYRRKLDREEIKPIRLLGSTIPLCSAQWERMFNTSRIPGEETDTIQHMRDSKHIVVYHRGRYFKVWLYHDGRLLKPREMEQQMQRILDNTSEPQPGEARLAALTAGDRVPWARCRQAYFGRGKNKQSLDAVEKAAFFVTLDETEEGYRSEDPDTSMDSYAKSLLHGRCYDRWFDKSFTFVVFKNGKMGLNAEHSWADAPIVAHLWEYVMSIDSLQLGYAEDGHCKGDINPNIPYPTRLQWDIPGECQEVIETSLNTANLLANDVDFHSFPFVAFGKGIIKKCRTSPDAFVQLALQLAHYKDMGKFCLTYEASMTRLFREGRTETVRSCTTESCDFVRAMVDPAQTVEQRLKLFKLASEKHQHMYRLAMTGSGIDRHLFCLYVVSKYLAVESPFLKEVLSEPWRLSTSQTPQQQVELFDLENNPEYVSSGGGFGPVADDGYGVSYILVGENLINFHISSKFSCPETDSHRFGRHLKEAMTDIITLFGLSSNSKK
Description: DTNB colorimetric CoA release assay, […] nm, transfected Expi293 pellet extract. Format: biochemical.

Assay [2] concerns the target T1, human CPT1a. The description is as above. Format: cell-based.

Read-outs that look alike come from different tables or passages of the source.

As for `CN(C)CCCN1c2ccccc2Sc2ccc(Cl)cc21` [chlorpromazine], the IC50 (in general, the point on the concentration scale where inhibition reaches its midpoint) in assay [1] stood at 179 µM.

On to `C1CCC(C(CC2CCCCN2)C2CCCCC2)CC1` (stereo not drawn) [perhexiline], for which inhibition in assay [2] was half-maximal at 319 µM (IC50).

With `O=C(O)[C@@]1(CCCCCCOc2ccc(Cl)cc2)CO1` [etomoxir], the IC50 in assay [1] came to 4710 µM.
